Measured values: paper PMC11149885 (PLOS ONE, 2024)
Where “and” joins values, the source holds several entries; their conditions need not be identical. Equal values may be shown once.

Key:
VEGFR2 [1] = biological target: T1, VEGFR2 (Homo sapiens, UniProt P35968); assay: Ten-dose IC50 measurement; type: biochemical; conditions: 10μM ATP
T1 construct: purchased Millipore Corporation (Dundee, Scotland) or Reaction Biology Corporation (contract assay)

VEGFR1 [2] = biological target: T2, VEGFR1 (Homo sapiens, UniProt P17948); assay: Ten-dose IC50 measurement; conditions: 10μM ATP
TIE2 [3] = biological target: T3, TIE2 (Homo sapiens, UniProt Q02763); assay: Ten-dose IC50 measurement; conditions: 10μM ATP
VEGFR1 [4] = biological target: T2, VEGFR1
VEGFR2 [5] = biological target: T1, VEGFR2; assay: HotSpot kinase screen; type: biochemical; conditions: 10μM ATP
VEGFR3 [6] = biological target: T4, VEGFR3 (Homo sapiens, UniProt P35916); assay: Ten-dose IC50 measurement; type: biochemical; conditions: 10μM ATP
T4 construct: purchased Millipore Corporation (Dundee, Scotland) or Reaction Biology Corporation (contract assay)

[7] = test system: VEGF-induced angiogenesis on the CAM; assay: Gelatin sponge chick chorioallantoic membrane (CAM) assay
VEGFR3 [8] = biological target: T4, VEGFR3; assay: HotSpot kinase screen; type: biochemical; conditions: 10μM ATP
Experimental: (§1) Measurement of kinase activity was performed by Reaction Biology Corporation (Reaction Biology Corporation, Malvern, PA), using the HotSpot™ assay. The screen focused on RTKs reported in the literature to play a major role in the regulation of angiogenesis (VEGFR1, VEGFR2, and VEGFR3; fibroblast growth factor receptor [FGFR] 1, 2, and 3; and platelet-derived growth factor receptor beta [PDGFRβ]) as well as an RTK essential for maintaining blood vessel stability (TIE2). For the profiling, specific kinase/substrate pairs and required cofactors were prepared in a reaction buffer (20mM Hepes [pH 7.5], 10mM MgCl2, 1mM EGTA, 0.02% Brij35, 0.02 mg/mL BSA, 0.1mM Na3VO4, 2mM DTT, 1% dimethyl sulfoxide [DMSO]). TKI compounds were diluted to 10μM and 1μM concentrations for the screens and after addition to the reaction buffer incubated for 20 minutes, followed by the addition of a mixture of ATP (Sigma, St. Louis, MO) and ^33P-ATP (Perkin Elmer, Waltham, MA) to a final ATP concentration of 10μM. Reactions were carried out at room temperature for 2 hours, followed by spotting of the reactions onto P81 ion exchange filter paper (Whatman Inc., Piscataway, NJ). Unbound phosphate was removed by extensive washing of the filters. […] Kinome TREEspot images representing levels of inhibition were prepared using Kinome Mapper (https://www.reactionbiology.com/resources/tools/kinase-mapper).

FGFR2 = biological target: T5, FGFR2 (Homo sapiens, UniProt P21802); assay: HotSpot kinase screen; type: biochemical; conditions: 10μM ATP
T5 construct: purchased Reaction Biology Corporation (contract assay)
Experimental: as §1

TIE2 [9] = biological target: T3, TIE2; assay: HotSpot kinase screen; type: biochemical; design: purchased Reaction Biology Corporation (contract assay); conditions: 10μM ATP
VEGFR1 [10] = biological target: T2, VEGFR1; assay: HotSpot kinase screen; type: biochemical; design: purchased Millipore Corporation (Dundee, Scotland) or Reaction Biology Corporation (contract assay); conditions: 10μM ATP
Experimental: as §1

[11] = test system: VEGF-A–induced sprouting of HUVECs; assay: HUVEC spheroid sprouting assay; type: cell-based, human; conditions: for cumulative sprout length per spheroid (CSL), mean: 25 ng/mL VEGF-165, 24 hours
Experimental: The three TKI compounds were tested by Reaction Biology Europe (Freiburg, Germany) in the spheroid-based cellular angiogenesis assay to determine their effect on VEGF-A–induced sprouting of HUVECs. Primary HUVECs from pooled donors at passage 3 to 4 (PromoCell, Heidelberg, Germany) were grown in endothelial cell growth and basal medium (ECGM/ECBM, PromoCell). Test compounds were prepared as 100-fold concentrated stock solutions in DMSO and pre-diluted in basal medium. HUVECs were stimulated using 25 ng/mL VEGF-165 (Reaction Biology Europe, Freiburg, Germany) pre-diluted in basal medium.
Spheroids were prepared as described by pipetting 400 HUVECs in a hanging drop on plastic dishes to allow overnight spheroid aggregation. Fifty HUVEC spheroids were seeded in 0.9 mL of a collagen gel and pipetted into individual wells of a 24-well plate to allow polymerization. Test compounds and VEGF-165 were added after 30 minutes by pipetting 100 μL of a ten-fold concentrated solution onto the polymerized gel. Plates were incubated at 37°C for 24 hours, and cells were fixed by adding 4% paraformaldehyde (Roth, Karlsruhe, Germany). Sprouting intensity of HUVEC spheroids treated with the test samples was quantitated using an image analysis system to determine the cumulative sprout length (CSL) per spheroid. Images of single spheroids were captured using an inverted microscope and the digital imaging software NIS-Elements BR 3.0 (Nikon). Spheroid pictures were uploaded to Wimasis (www.wimasis.com) for image analysis. The CSL of each spheroid was determined using the imaging analysis tool WimSprout. The mean CSL of ten randomly selected spheroids was analyzed as an individual data point.

TIE2 [12] = biological target: T3, TIE2

T2 sequence (P17948 27-1338): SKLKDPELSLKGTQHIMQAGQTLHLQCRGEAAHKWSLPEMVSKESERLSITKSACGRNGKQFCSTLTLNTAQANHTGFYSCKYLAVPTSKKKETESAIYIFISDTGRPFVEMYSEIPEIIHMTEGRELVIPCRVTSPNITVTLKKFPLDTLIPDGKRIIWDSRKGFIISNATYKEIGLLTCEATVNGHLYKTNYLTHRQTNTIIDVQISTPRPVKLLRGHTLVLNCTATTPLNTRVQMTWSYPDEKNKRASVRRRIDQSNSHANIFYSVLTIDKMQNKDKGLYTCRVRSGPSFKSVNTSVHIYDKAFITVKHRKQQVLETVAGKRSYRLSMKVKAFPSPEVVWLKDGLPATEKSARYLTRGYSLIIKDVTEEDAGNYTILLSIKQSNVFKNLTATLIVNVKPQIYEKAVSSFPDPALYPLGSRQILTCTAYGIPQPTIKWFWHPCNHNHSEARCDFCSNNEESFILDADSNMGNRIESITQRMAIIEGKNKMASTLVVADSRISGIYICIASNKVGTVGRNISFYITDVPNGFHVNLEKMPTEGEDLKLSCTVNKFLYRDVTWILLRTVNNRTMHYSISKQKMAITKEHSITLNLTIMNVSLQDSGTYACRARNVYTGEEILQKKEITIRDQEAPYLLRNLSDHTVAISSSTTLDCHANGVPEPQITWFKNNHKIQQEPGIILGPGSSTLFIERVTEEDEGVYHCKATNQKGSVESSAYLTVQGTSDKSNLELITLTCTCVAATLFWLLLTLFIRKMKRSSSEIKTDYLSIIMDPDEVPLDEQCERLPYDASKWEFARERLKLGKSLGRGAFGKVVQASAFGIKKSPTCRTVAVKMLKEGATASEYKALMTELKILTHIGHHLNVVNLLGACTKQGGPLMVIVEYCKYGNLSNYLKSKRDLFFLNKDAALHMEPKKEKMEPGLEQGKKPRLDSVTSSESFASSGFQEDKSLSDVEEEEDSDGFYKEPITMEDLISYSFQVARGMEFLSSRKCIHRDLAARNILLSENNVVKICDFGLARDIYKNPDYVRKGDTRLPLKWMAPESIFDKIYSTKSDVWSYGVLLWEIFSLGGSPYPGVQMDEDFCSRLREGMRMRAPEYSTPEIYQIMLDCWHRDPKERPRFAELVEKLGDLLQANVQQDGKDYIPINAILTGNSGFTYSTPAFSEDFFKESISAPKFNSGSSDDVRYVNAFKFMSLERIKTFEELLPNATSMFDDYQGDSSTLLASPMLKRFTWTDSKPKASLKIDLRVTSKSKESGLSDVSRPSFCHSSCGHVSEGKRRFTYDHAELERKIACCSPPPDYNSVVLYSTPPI
T1 sequence (P35968 20-1356): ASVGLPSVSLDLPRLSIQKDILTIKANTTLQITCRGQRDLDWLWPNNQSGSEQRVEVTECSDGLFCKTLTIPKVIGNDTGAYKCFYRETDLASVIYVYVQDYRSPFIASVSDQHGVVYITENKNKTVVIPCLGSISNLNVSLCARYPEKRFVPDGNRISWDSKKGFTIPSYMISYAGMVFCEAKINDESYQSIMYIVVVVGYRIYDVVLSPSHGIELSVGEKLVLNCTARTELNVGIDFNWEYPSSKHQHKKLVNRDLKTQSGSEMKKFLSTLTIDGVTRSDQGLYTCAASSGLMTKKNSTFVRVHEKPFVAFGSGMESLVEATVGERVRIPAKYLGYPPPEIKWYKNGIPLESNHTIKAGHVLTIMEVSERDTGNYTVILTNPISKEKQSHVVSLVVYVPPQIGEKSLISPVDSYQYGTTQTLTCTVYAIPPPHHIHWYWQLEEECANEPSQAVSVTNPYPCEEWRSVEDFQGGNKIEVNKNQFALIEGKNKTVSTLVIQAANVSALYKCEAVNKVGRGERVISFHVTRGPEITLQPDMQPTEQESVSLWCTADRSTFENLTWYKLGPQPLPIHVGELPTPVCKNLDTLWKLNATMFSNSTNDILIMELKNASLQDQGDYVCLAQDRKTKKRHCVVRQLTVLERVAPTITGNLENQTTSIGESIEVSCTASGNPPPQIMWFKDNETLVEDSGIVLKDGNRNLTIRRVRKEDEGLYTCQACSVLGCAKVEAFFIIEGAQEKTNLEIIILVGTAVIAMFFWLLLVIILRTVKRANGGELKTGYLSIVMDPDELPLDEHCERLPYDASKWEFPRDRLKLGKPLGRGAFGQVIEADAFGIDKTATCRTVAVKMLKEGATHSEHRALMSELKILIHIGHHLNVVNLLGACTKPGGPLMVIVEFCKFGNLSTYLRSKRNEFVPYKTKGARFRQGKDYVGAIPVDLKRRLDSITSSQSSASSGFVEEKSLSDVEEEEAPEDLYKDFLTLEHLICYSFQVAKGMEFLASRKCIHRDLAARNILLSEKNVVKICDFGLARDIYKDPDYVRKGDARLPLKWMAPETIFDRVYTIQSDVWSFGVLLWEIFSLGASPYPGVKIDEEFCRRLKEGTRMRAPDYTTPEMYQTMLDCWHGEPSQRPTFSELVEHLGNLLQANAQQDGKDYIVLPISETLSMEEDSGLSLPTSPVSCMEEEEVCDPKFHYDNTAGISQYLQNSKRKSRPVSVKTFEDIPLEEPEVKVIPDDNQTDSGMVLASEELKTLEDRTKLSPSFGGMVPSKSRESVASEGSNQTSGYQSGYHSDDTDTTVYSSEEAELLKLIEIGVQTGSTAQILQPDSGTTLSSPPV
T4 sequence (P35916 25-1363): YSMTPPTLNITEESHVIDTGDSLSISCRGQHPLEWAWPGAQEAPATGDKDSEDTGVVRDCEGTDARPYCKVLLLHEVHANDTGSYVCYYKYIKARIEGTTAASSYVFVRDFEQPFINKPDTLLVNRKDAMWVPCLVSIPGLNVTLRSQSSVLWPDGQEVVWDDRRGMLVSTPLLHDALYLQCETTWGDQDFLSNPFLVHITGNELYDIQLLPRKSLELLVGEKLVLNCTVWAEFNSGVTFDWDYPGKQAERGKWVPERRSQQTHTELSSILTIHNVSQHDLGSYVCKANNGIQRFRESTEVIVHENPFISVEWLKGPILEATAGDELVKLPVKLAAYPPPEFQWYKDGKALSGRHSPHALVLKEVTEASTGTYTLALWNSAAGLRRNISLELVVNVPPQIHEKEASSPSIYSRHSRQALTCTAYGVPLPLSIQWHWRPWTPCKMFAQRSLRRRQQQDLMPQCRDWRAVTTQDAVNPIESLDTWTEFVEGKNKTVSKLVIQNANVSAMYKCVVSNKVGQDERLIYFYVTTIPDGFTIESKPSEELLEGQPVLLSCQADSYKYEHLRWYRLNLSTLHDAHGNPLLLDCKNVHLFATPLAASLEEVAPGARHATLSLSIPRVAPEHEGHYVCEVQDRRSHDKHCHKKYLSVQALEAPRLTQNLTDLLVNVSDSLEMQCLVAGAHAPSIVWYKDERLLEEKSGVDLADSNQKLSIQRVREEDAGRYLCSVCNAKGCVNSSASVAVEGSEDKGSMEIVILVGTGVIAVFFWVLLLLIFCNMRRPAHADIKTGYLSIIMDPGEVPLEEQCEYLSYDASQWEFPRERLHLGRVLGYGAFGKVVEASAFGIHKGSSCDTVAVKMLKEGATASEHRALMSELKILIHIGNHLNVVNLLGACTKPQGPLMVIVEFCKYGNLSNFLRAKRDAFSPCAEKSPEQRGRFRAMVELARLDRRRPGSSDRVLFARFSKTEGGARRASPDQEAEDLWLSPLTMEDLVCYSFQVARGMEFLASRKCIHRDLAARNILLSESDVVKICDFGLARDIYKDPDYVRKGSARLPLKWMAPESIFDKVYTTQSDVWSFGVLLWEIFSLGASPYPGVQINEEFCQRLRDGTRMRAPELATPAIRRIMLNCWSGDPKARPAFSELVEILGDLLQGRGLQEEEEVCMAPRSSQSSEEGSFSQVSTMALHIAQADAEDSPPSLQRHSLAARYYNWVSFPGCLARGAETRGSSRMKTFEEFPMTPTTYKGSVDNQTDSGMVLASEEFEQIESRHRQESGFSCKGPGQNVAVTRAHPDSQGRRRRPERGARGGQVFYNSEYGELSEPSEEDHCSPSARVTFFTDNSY
T3 sequence (Q02763 23-1124): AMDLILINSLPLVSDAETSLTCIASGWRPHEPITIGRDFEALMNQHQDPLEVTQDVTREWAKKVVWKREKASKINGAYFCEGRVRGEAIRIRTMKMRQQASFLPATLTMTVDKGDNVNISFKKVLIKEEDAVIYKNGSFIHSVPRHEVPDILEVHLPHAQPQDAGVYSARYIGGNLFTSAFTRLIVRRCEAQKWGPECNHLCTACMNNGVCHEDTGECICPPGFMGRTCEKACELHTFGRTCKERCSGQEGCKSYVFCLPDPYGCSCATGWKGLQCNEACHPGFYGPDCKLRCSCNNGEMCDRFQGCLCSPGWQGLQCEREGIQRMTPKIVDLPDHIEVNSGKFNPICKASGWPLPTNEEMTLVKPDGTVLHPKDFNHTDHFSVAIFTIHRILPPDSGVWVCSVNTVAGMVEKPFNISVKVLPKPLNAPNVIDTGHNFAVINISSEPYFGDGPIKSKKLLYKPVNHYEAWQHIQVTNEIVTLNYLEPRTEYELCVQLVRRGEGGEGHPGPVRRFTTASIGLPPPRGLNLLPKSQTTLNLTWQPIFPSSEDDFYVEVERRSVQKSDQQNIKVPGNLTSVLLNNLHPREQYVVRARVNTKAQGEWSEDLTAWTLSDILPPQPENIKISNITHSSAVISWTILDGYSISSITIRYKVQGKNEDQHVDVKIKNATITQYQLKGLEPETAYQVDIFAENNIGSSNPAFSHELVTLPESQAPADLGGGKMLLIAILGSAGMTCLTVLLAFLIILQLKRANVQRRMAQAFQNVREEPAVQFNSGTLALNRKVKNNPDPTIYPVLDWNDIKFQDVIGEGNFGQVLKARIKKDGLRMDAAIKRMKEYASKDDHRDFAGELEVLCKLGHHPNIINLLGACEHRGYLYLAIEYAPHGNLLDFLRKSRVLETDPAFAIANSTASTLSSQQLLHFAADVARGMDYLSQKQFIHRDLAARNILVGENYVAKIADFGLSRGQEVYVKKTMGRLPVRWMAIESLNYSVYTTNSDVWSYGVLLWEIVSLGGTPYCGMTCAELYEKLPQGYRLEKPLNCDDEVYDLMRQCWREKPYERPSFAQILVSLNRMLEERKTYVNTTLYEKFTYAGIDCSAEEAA

SMILES: CNC(=O)c1ccccc1Sc1ccc2c(/C=C/c3ccccn3)n[nH]c2c1 [Axitinib]
- %Activity VEGFR2 (VEGFR2 [1]; 1.00E-05 M TKI): 7.43%
- %Activity VEGFR2 (VEGFR2 [1]; 1.11E-06 M TKI): 4.53%
- %Activity VEGFR2 (VEGFR2 [1]; 1.23E-07 M TKI): 7.10%
- %Activity VEGFR2 (VEGFR2 [1]; 1.37E-08 M TKI): 13.24%
- %Activity VEGFR2 (VEGFR2 [1]; 1.52E-09 M TKI): 62.16%
- %Activity VEGFR2 (VEGFR2 [1]; 3.33E-06 M TKI): 6.81%
- %Activity VEGFR2 (VEGFR2 [1]; 3.70E-07 M TKI): 7.21%
- %Activity VEGFR2 (VEGFR2 [1]; 4.12E-08 M TKI): 8.44%
- %Activity VEGFR2 (VEGFR2 [1]; 4.57E-09 M TKI): 25.12%
- %Activity VEGFR2 (VEGFR2 [1]; 5.08E-10 M TKI): 84.02%
- HillSlope VEGFR2 (VEGFR2 [1]; IC50 curve fit): -1.18
- %Activity VEGFR1 (VEGFR1 [2]; 1.00E-05 M TKI): -0.87%
- %Activity VEGFR1 (VEGFR1 [2]; 1.11E-06 M TKI): -0.31%
- %Activity VEGFR1 (VEGFR1 [2]; 1.37E-08 M TKI): 18.99%
- %Activity VEGFR1 (VEGFR1 [2]; 1.52E-09 M TKI): 42.18%
- %Activity VEGFR1 (VEGFR1 [2]; 3.33E-06 M TKI): -0.89%
- %Activity VEGFR1 (VEGFR1 [2]; 4.12E-08 M TKI): 9.96%
- %Activity VEGFR1 (VEGFR1 [2]; 4.57E-09 M TKI): 22.02%
- %Activity VEGFR1 (VEGFR1 [2]; 5.08E-10 M TKI): 59.50%
- %Activity TIE2 (TIE2 [3]; 1.00E-05 M TKI): 10.50%
- %Activity TIE2 (TIE2 [3]; 1.11E-06 M TKI): 16.32%
- %Activity TIE2 (TIE2 [3]; 1.37E-08 M TKI): 87.12%
- %Activity TIE2 (TIE2 [3]; 1.52E-09 M TKI): 98.75%
- %Activity TIE2 (TIE2 [3]; 3.33E-06 M TKI): 7.06%
- %Activity TIE2 (TIE2 [3]; 3.70E-07 M TKI): 38.01%
- %Activity TIE2 (TIE2 [3]; 4.12E-08 M TKI): 78.65%
- %Activity TIE2 (TIE2 [3]; 4.57E-09 M TKI): 95.05%
- %Activity TIE2 (TIE2 [3]; 5.08E-10 M TKI): 95.58%
- activity (VEGFR1 [4]): 5.07%
- Avg % Inhibition VEGFR2 (VEGFR2 [5]; 1uM TKI): 100%
- Avg % Inhibition VEGFR2 (VEGFR2 [5]; 10uM TKI): 90.96%
- %Activity VEGFR3 (VEGFR3 [6]; 1.00E-05 M TKI): 2.02%
- %Activity VEGFR3 (VEGFR3 [6]; 1.11E-06 M TKI): 2.44%
- %Activity VEGFR3 (VEGFR3 [6]; 1.37E-08 M TKI): 28.96%
- %Activity VEGFR3 (VEGFR3 [6]; 1.52E-09 M TKI): 56.16%
- %Activity VEGFR3 (VEGFR3 [6]; 3.33E-06 M TKI): 1.23%
- %Activity VEGFR3 (VEGFR3 [6]; 3.70E-07 M TKI): 5.72%
- %Activity VEGFR3 (VEGFR3 [6]; 4.57E-09 M TKI): 40.16%
- %Activity VEGFR3 (VEGFR3 [6]; 5.08E-10 M TKI): 63.17%
- Angiogenesis - Vessel number, Mean ([7]; TKI at 200 x VEGFR2 IC50): 11.1
- Angiogenesis - Vessel number, individual egg ([7]; TKI at 200 x VEGFR2 IC50, one value per egg): 9.33 and 12.67 and 12 and 10.33
- reduction of the number of blood vessels perfusing the sponges vs negative control ([7]; TKI at VEGFR2 IC50 dose): 24.6%
- Angiogenesis - Vessel thickness score, Mean ([7]; TKI at VEGFR2 IC50 dose, score 0-3): 0.9
- Angiogenesis - Vessel thickness score, individual egg ([7]; TKI at VEGFR2 IC50 dose, score 0-3, one value per egg): 0.33 and 1.33 and 0 and 1.67
- Avg % Inhibition VEGFR3 (VEGFR3 [8]; 1uM TKI): 97.27%
- Avg % Inhibition VEGFR3 (VEGFR3 [8]; 10uM TKI): 99.21%
- Avg % Inhibition FGFR2 (FGFR2; 1uM TKI): 93.95%
- Avg % Inhibition FGFR2 (FGFR2; 10uM TKI): 98.81%
- Avg % Inhibition TIE2 (TIE2 [9]; 1uM TKI): 81% and 81.47%
- Avg % Inhibition TIE2 (TIE2 [9]; 10uM TKI): 89% and 89.11%
- Avg % Inhibition TIE2 (TIE2 [9]; 10uM TKI, listed as axitinib): up to 89%
- Avg % Inhibition VEGFR1 (VEGFR1 [10]; 1uM TKI): 100%
- Avg % Inhibition VEGFR1 (VEGFR1 [10]; 10uM TKI): 97.53%
- cumulative sprout length per spheroid (CSL), mean ([11]; 1.00E-05 M TKI): 259
- cumulative sprout length per spheroid (CSL), mean ([11]; 1.00E-06 M TKI): 441
- cumulative sprout length per spheroid (CSL), mean ([11]; 1.00E-07 M TKI): 459
- cumulative sprout length per spheroid (CSL), mean ([11]; 3.00E-06 M TKI): 354
- cumulative sprout length per spheroid (CSL), mean ([11]; 3.00E-07 M TKI): 373
- cumulative sprout length per spheroid (CSL), mean ([11]; 3.00E-08 M TKI): 379
- vessel sprouting (representative spheroid images) ([11]; highest test concentration of 1×10^–5M): zero vessel sprouting
- activity (TIE2 [12]): 60.1%
